Results from PMC6256987, “Investigating the Activity Spectrum for Ring-Substituted 8-Hydroxyquinolines” (Molecules, 2010).
≈ marks a conversion by molar mass, not a printed value. Where two headings read alike, the source gives them in different places.

Experiments:
[1] = system: Trichosporon beigelii 1188; test: In vitro antifungal broth microdilution test; type: cell-based
Protocol: Fluconazole (FLU) was used as the standard of a clinically used antimycotic drug. The procedure was performed with twofold dilution of the compounds in RPMI 1640 (Sevapharma a.s., Prague, Czech Republic) buffered to pH 7.0 with 0.165 mol of 3-morpholino-propane-1-sulfonic acid (MOPS, Sigma, Germany). The final concentrations of the compounds ranged from 500 to 0.975 μmol/L. Drug–free controls were included. The MIC determination was performed according to the CLSI (formerly NCCLS) reference protocol M27-A2 for yeasts (IC80 value) and M38-A for moulds (IC50 value). […] The values of MICs were determined after 24 and 48 h of static incubation at 35 °C. For T. mentagrophytes, the final MICs were determined after 72 and 120 h of incubation.

Candida krusei ATCC 6258 = test: In vitro antifungal broth microdilution test; type: cell-based; settings: 35 °C, RPMI 1640 pH 7.0, CLSI M27-A2 (IC80 value); for MIC: Pichia kudriavzevii, ATCC6258
Candida glabrata 20/I = test: In vitro antifungal broth microdilution test; type: cell-based; settings: 35 °C, RPMI 1640 pH 7.0, CLSI M27-A2 (IC80 value); for MIC: Nakaseomyces glabratus, 20/I
[2] = system: Trichophyton mentagrophytes 445; test: In vitro antifungal broth microdilution test; type: cell-based
[3] = system: Aspergillus fumigatus 231; test: In vitro antifungal broth microdilution test; type: cell-based; settings: 35 °C, RPMI 1640 pH 7.0, CLSI M38-A (IC50 value); for MIC: Aspergillus fumigatus, 231
[4] = Lipophilicity determination by RP-HPLC (capacity factor k / log k); type: physicochemical; settings: C18 column, isocratic MeOH 55.0% / H2O 45.0%
Source text: A Waters Alliance 2695 XE HPLC separation module and Waters Photodiode Array Detector 2996 (Waters Corp., Milford, MA, USA) were used. A Symmetry® C18 5 μm, 4.6 × 250 mm, Part No. WAT054275, (Waters Corp., Milford, MA, USA) chromatographic column was used. The HPLC separation process was monitored by Millennium32® Chromatography Manager Software, Waters 2004 (Waters Corp., Milford, MA, USA). A mixture of MeOH p.a. (55.0%) and H2O-HPLC– Mili-Q Grade (45.0%) was used as a mobile phase. The total flow of the column was 0.9 mL/min, injection 30 μL, column temperature 30 °C and sample temperature 10 °C. The detection wavelength 210 nm was chosen. The KI methanolic solution was used for the dead time (tD) determination. Retention times (tR) were measured in minutes.
The capacity factors k were calculated using the Millennium32® Chromatography Manager Software according to formula k = (tR - tD)/tD, where tR is the retention time of the solute, whereas tD denotes the dead time obtained via an unretained analyte. Log k, calculated from the capacity factor k, is used as the lipophilicity index converted to log P scale.

Absidia corymbifera 272 = test: In vitro antifungal broth microdilution test; type: cell-based; settings: 35 °C, RPMI 1640 pH 7.0, CLSI M38-A (IC50 value); for MIC: Lichtheimia corymbifera, 272
[5] = system: photosynthetic electron transport (PET) in spinach chloroplasts; test: Inhibition of photosynthetic electron transport (PET) in spinach chloroplasts, DCPIP photoreduction; type: biochemical, Spinacia oleracea L.; settings: DCPIP as electron acceptor, phosphate buffer pH 7.2, read-out: PET reduction IC50
Protocol: Chloroplasts were prepared from spinach (Spinacia oleracea L.) according to Masarovicova and Kralova. The inhibition of photosynthetic electron transport (PET) in spinach chloroplasts was determined spectrophotometrically (Genesys 6, Thermo Scientific, USA) using an artificial electron acceptor 2,6-dichlorophenol-indophenol (DCIPP) according to Kralova et al. and the rate of photosynthetic electron transport was monitored as a photoreduction of DCPIP. The measurements were carried out in phosphate buffer (0.02 mol/L, pH 7.2) containing sucrose (0.4 mol/L), MgCl2 (0.005 mol/L) and NaCl (0.015 mol/L). The chlorophyll content was 30 mg/L in these experiments and the samples were irradiated (~100 W/m^2) from 10 cm distance with a halogen lamp (250 W) using a 4 cm water filter to prevent warming of the samples (suspension temperature 22 °C). The studied compounds were dissolved in DMSO due to their limited water solubility. […] The inhibitory efficiency of the studied compounds was expressed by IC50 values, i.e., by molar concentration of the compounds causing 50% decrease in the oxygen evolution rate relative to the untreated control.

[6] = system: Candida albicans ATCC 44859; test: In vitro antifungal broth microdilution test; type: cell-based; settings: 35 °C, RPMI 1640 pH 7.0, CLSI M27-A2 (IC80 value); for MIC: Candida albicans, ATCC44859
Candida tropicalis 156 = test: In vitro antifungal broth microdilution test; type: cell-based; settings: 35 °C, RPMI 1640 pH 7.0, CLSI M27-A2 (IC80 value); for MIC: Candida tropicalis, 156
[7] = Trichosporon beigelii, 1188, 24h, 35 °C, RPMI 1640 pH 7.0, CLSI M27-A2 (IC80 value), read-out: MIC TB
[8] = Trichosporon beigelii, 1188, 48h, 35 °C, RPMI 1640 pH 7.0, CLSI M27-A2 (IC80 value), read-out: MIC TB
[9] = Trichophyton mentagrophytes, 445, 120 h, pH 7
[10] = Trichophyton mentagrophytes, 445, 72h, RPMI 1640 pH 7.0, CLSI M38-A (IC50 value)

Compound	MIC [1, 7]	MIC [1, 8]	MIC (Candida krusei ATCC 6258; 24h)	MIC (Candida krusei ATCC 6258; 48h)	MIC (Candida glabrata 20/I; 24h)	MIC (Candida glabrata 20/I; 48h)	MIC [2, 9]	MIC [2, 10]	MIC ([3]; 24h)	MIC ([3]; 48h)	log k [4]	MIC (Absidia corymbifera 272; 24h)	MIC (Absidia corymbifera 272; 48h)	IC50 [5]	MIC ([6]; 24h)	MIC ([6]; 48h)	MIC (Candida tropicalis 156; 24h)	MIC (Candida tropicalis 156; 48h)	other results
CC(=O)Nc1ccc2cccc(OC(C)=O)c2n1 [Compound 8, 2-Acetylaminoquinolin-8-yl acetate]	62.5 µM	125 µM	62.5 µM	62.5 µM	31.2 µM	62.5 µM	62.5 µM	62.5 µM	62.5 µM	62.5 µM	0.3583	62.5 µM	62.5 µM	306 µM	15.6 µM	62.5 µM	31.2 µM	31.2 µM	
O=S(=O)(NCCc1ccccc1)c1ccc(O)c2ncccc12 [Compound 6, 8-Hydroxyquinoline-5-sulfonic acid (2-phenylethyl)amide]	125 µM (≈ 41 µg/mL)	125 µM (≈ 41 µg/mL)	125 µM (≈ 41 µg/mL)	125 µM (≈ 41 µg/mL)	125 µM (≈ 41 µg/mL)	125 µM (≈ 41 µg/mL)	125 µM (≈ 41 µg/mL)	125 µM (≈ 41 µg/mL)	125 µM (≈ 41 µg/mL)	125 µM (≈ 41 µg/mL)	0.3349	125 µM (≈ 41 µg/mL)	125 µM (≈ 41 µg/mL)	304 µM	125 µM (≈ 41 µg/mL)	125 µM (≈ 41 µg/mL)	125 µM (≈ 41 µg/mL)	125 µM (≈ 41 µg/mL)	
O=S(=O)(O)c1cc(Br)c(O)c2ncccc12 [Compound 3, 7-Bromo-8-hydroxyquinoline-5-sulfonic acid]		3.9 µM (≈ 1.19 µg/mL)	3.9 µM (≈ 1.19 µg/mL)	3.9 µM (≈ 1.19 µg/mL)	1.95 µM (≈ 0.593 µg/mL)	3.9 µM (≈ 1.19 µg/mL)	1.95 µM (≈ 0.593 µg/mL)	1.95 µM (≈ 0.593 µg/mL)	0.77 µM (≈ 0.234 µg/mL)	1.95 µM (≈ 0.593 µg/mL)	0.3786	7.8 µM (≈ 2.37 µg/mL)	7.8 µM (≈ 2.37 µg/mL)	33.5 µM	0.77 µM (≈ 0.234 µg/mL)	1.95 µM (≈ 0.593 µg/mL)	1.95 µM (≈ 0.593 µg/mL)	3.9 µM (≈ 1.19 µg/mL)	MIC ([1]; Trichosporon beigelii, 1188, 24 h, pH 7, read-out: MIC TB): 3.9 µM (≈ 1.19 µg/mL)
8-Hydroxyquinoline-5-sulfonic acid isobutylamide [Compound 5]											0.3373			54.4 µM					MIC TB ([1]; 24h, 35 °C, RPMI 1640 pH 7.0, CLSI M27-A2 (IC80 value)): 250 µM; MIC TB ([1]; 48h, 35 °C, RPMI 1640 pH 7.0, CLSI M27-A2 (IC80 value)): 500 µM; MIC CK (Candida krusei ATCC 6258; 24h): 250 µM; MIC CK (Candida krusei ATCC 6258; 48h): 250 µM; MIC CG (Candida glabrata 20/I; 24h): 125 µM; MIC CG (Candida glabrata 20/I; 48h): 250 µM; MIC TM ([2]; 72h, RPMI 1640 pH 7.0, CLSI M38-A (IC50 value)): 62.50 µM; MIC TM ([2]; 120h, RPMI 1640 pH 7.0, CLSI M38-A (IC50 value)): 125 µM; MIC AF ([3]; 24h): 250 µM; MIC AF ([3]; 48h): 250 µM; MIC AC (Absidia corymbifera 272; 24h): 125 µM; MIC AC (Absidia corymbifera 272; 48h): 125 µM; MIC CA ([6]; 24h): 125 µM; MIC CA ([6]; 48h): 250 µM; MIC CT (Candida tropicalis 156; 24h): 250 µM; MIC CT (Candida tropicalis 156; 48h): 250 µM
OC(Cn1cncn1)(Cn1cncn1)c1ccc(F)cc1F [FLU, fluconazole, reference compound]	0.24 µM (≈ 0.0735 µg/mL)	0.48 µM (≈ 0.147 µg/mL)	3.91 µM (≈ 1.2 µg/mL)	15.6 µM (≈ 4.78 µg/mL)	0.98 µM (≈ 0.3 µg/mL)	3.91 µM (≈ 1.2 µg/mL)	3.91 µM (≈ 1.2 µg/mL)	1.95 µM (≈ 0.597 µg/mL)	> 125 µM	> 125 µM		> 125 µM	> 125 µM		0.06 µM (≈ 0.0184 µg/mL)	0.12 µM (≈ 0.0368 µg/mL)	0.12 µM (≈ 0.0368 µg/mL)	> 125 µM	
O=[N+]([O-])c1ccc(O)c2ncccc12 [Compound 1, 5-Nitroquinolin-8-ol]	> 500 µM	> 500 µM	> 500 µM	> 500 µM	> 500 µM	> 500 µM	> 500 µM	> 500 µM	> 500 µM	> 500 µM	0.5695	> 500 µM	> 500 µM	78 µM	> 500 µM	> 500 µM	> 500 µM	> 500 µM	
Oc1ccccc1C=Cc1ccc2c(Cl)cc(Cl)c(O)c2n1 [Compound 9, 5,7-Dichloro-2-[2-(2-hydroxyphenyl)vinyl]quinolin-8-ol]											1.5854								
O=S(=O)(NCCCCc1ccccc1)c1ccc(O)c2ncccc12 [Compound 7, 8-Hydroxyquinoline-5-sulfonic acid (4-phenylbutyl)amide]	> 125 µM	> 125 µM	> 125 µM	> 125 µM	> 125 µM	> 125 µM	> 125 µM	> 125 µM	> 125 µM	> 125 µM	0.3902	> 125 µM	> 125 µM	616 µM	> 125 µM	> 125 µM	> 125 µM	> 125 µM	
O=S(=O)(c1ccc(O)c2ncccc12)N1CCOCC1 [Compound 4, 5-(Morpholine-4-sulfonyl)quinolin-8-ol]	500 µM (≈ 147 µg/mL)	500 µM (≈ 147 µg/mL)	250 µM (≈ 73.6 µg/mL)	500 µM (≈ 147 µg/mL)	500 µM (≈ 147 µg/mL)	500 µM (≈ 147 µg/mL)	250 µM (≈ 73.6 µg/mL)	250 µM (≈ 73.6 µg/mL)	500 µM (≈ 147 µg/mL)	500 µM (≈ 147 µg/mL)	0.3293	125 µM (≈ 36.8 µg/mL)	250 µM (≈ 73.6 µg/mL)		125 µM (≈ 36.8 µg/mL)	500 µM (≈ 147 µg/mL)	500 µM (≈ 147 µg/mL)	500 µM (≈ 147 µg/mL)	
O=[N+]([O-])c1cc(S(=O)(=O)O)c2cccnc2c1O [Compound 2, 8-Hydroxy-7-nitroquinoline-5-sulfonic acid]	> 250 µM	> 250 µM	> 250 µM	> 250 µM	> 250 µM	> 250 µM	> 250 µM	> 250 µM	> 250 µM	> 250 µM	0.1479	> 250 µM	> 250 µM		> 250 µM	> 250 µM	> 250 µM	> 250 µM	
